Read-outs that look alike come from different tables or passages of the source.

For orientation: IC50 means the midpoint of a concentration-inhibition curve.

For data set [1], the system named is Caco-2 cells. Description: C1-BODIPY-C12 fatty acid uptake (transport) inhibition in Caco-2 cells. Format: cell-based, human. The following applies: for % Transport Standard Assay: compound at f.c. 40 μM, Caco-2 cells, control = 100, mean ± SD of 3-5 experiments. The source says:
The Caco-2 cell line is derived from a human adenocarcinoma and is able to undergo differentiation into polarized epithelial cells that show a brush border phenotype and form well-developed and functional tight junction complexes [Fogh et al., J. Natl. Cancer Inst., 1977, 59:221-6; Grasset et al., Am. J. Physiol., 1984, 247:C260-7]. This cell line is used as an in vitro model to predict human intestinal absorption and secretion [Hilgers et al., Pharm. Res., 1990, 7:902-10]. Caco-2 cells were maintained in Earl's minimal essential medium (MEM) with 20% FBS in a 95% air 5% CO2 atmosphere at 37° C., as previously described [Sandoval et al., Arch. Biochem. Biophys., 2008, 477:363-71]. For growth and differentiation, the BD Biosciences Intestinal Epithelium Differentiation Media Pack was used. Cells were plated in basal seeding medium at a density of 2.5×10^5 cells/cm^2 on a collagen-coated black-clear 96-well plate (BD Biosciences). After 72 h in culture, the basal seeding medium was removed and Entero-STIM medium was added to each well. Both media contained mito-serum extender. After another 24 h, cells were serum-starved for one hour in MEM without phenol red prior to performing the C1-BODIPY-C12 uptake assay. HepG2 cells (ATCC, HB-8065) were cultured according to the ATCC protocol. The cells were seeded in 96-well collagen coated plates at a seeding density of 2.5×10^5 cells/cm^2. […] For differentiation into adipocytes, 3T3-L1 cells were treated with methylisobutylxanthine (0.5 mM), dexamethasone (1.0 μM), and insulin (1.75 μM) in DMEM and 10% FBS for 48 hours as described by Student et al. [Student et al., J. Biol. Chem., 1980, 255:4745-50]. After 48 hour incubation with differentiation medium, cells were treated with DMEM and 10% FBS supplemented with insulin (1.75 μM) for 48 hours. Cells were subsequently maintained in DMEM and 10% FBS for an additional 3-6 days until fully differentiated. The number of cells per well in screening trials were determined using the FluoReporter® Blue Fluorometric DNA Quantitation Kit from Invitrogen.
Caco-2 cells were plated in basal seeding medium at a density of 2.5×10^5 cells/cm^2 in collagen-coated 96-well plates, and differentiated as detailed above. HepG2 cells were cultured in EMEM. Differentiated 3T3-L1 adipocytes were maintained in modified DMEM and 10% FBS. After another 24 h, cells were serum-starved for 1 h in MEM without phenol red prior to performing the C1-BODIPY-C12 transport assay [Sandoval et al., Arch. Biochem. Biophys., 2008, 477:363-71; Arias-Barrau et al., Methods Mol. Biol., 2009, 580:233-49]. In a standard reaction, serum-free MEM was removed from the wells and 50 μL of the test compound in MEM (MEM alone for controls) were added to each well and incubation was continued for 1 h. Then 50 μL of C1-BODIPY-C12 mixture (final concentrations 5 μM C1-BODIPY-C12; 5 μM FAF BSA; 1.97 mM trypan blue) was added to each well, and uptake was allowed to take place for 15 min. Cell-associated fluorescence was measured as detailed above. […] Ligand competition curves were fit by nonlinear least-squares regression using one-site competition and dose-response models and Prism software (GraphPad software, Inc., San Diego, Calif.) in order to determine the compound concentration that reduced C1-BODIPY-C12 fluorescence readout by 50% (IC50). Ki values were calculated from the IC50 using the equation of Cheng and Prusoff as detailed in Li et al. [J. Lipid Res., 2008, 49:230-44] and KT values published by Sandoval et al. [Sandoval et al., Arch. Biochem. Biophys., 2008, 477:363-71].

Data set [2] has as its system Caco-2 cells. Put plainly: Glucose analogue 2-NBDG uptake into Caco-2 cells. In kind it is cell-based, human. The following applies: differentiated Caco-2 cells. How it is done: To assess the impact of selected compounds upon glucose transport, Caco-2 cells were seeded and differentiated in 96-well collagen coated plates as detailed above and incubated for 1 h with compound diluted in PBS. […] Cells were incubated 30 min at 37° C., 5% CO2 to allow uptake. The medium was removed by aspiration and cells were rinsed once with 100 μL, of PBS.

Data set [3] deals with HepG2 cells. Description: C1-BODIPY-C12 fatty acid uptake inhibition in HepG2 cells. Format: cell-based. The method, then:
(§1) This cell line is used as an in vitro model to predict human intestinal absorption and secretion [Hilgers et al., Pharm. […] For growth and differentiation, the BD Biosciences Intestinal Epithelium Differentiation Media Pack was used. Cells were plated in basal seeding medium at a density of 2.5×10^5 cells/cm^2 on a collagen-coated black-clear 96-well plate (BD Biosciences). After 72 h in culture, the basal seeding medium was removed and Entero-STIM medium was added to each well. Both media contained mito-serum extender. After another 24 h, cells were serum-starved for one hour in MEM without phenol red prior to performing the C1-BODIPY-C12 uptake assay. […] The cells were seeded in 96-well collagen coated plates at a seeding density of 2.5×10^5 cells/cm^2. […] Cells were subsequently maintained in DMEM and 10% FBS for an additional 3-6 days until fully differentiated. The number of cells per well in screening trials were determined using the FluoReporter® Blue Fluorometric DNA Quantitation Kit from Invitrogen.
(§2) Caco-2 cells were plated in basal seeding medium at a density of 2.5×10^5 cells/cm^2 in collagen-coated 96-well plates, and differentiated as detailed above. HepG2 cells were cultured in EMEM. Differentiated 3T3-L1 adipocytes were maintained in modified DMEM and 10% FBS. After another 24 h, cells were serum-starved for 1 h in MEM without phenol red prior to performing the C1-BODIPY-C12 transport assay [Sandoval et al., Arch. […] In a standard reaction, serum-free MEM was removed from the wells and 50 μL of the test compound in MEM (MEM alone for controls) were added to each well and incubation was continued for 1 h. […] Cell-associated fluorescence was measured as detailed above.

The subject of data set [4] is long chain acyl-CoA synthetase (Acsl). Description: Oleoyl-CoA synthetase (Acsl) activity in Caco-2 cell extracts after compound treatment. In kind it is biochemical, human. The following applies: Caco-2 cells pretreated 1 h; for oleoyl CoA synthetase activity: activity in total cell extracts. The method, then:
Caco-2 cells were grown and differentiated in 60 mm collagen coated dishes (at a seeding density 2.5×10^5 cells/cm^2). Following growth and differentiation as detailed above, cells were serum starved for 1 h in MEM and then were treated for 1 h with selected compounds at specified final concentrations. The media was subsequently removed by aspiration and cells washed once with 5 mL PBS, trypsinized using standard procedures and collected by centrifugation. The cell pellet was resuspended in 1 mL STE lysis buffer (10 mM Tris-HCl (pH 8.0); 0.1M NaCl; 1 mM EDTA) and sonicated on ice for 2 min using 3 sec on/off pulses. […] In parallel experiments, untreated cells were used to prepare the cell extract for Acsl activity measurements where the compound of interest was added directly to the reaction mixture.
Acyl-CoA formed during the reaction remained in the aqueous fraction and was quantified by scintillation counting. Data were expressed as nmol oleoyl CoA formed/min/mg protein.

In data set [5] the test system is 3T3-L1 adipocytes. Description: C1-BODIPY-C12 fatty acid uptake inhibition in 3T3-L1 adipocytes. In kind it is cell-based. How it is done:
as §1, §2

In data set [6] the test system is Caco-2 cells. Put plainly: MTT cytotoxicity assay in Caco-2 cells. (In general: Tetrazolium dyes change colour on reduction, which living cells bring about.)
Method: The MTT [3-(4,5-dimethylthiazol-2-yl)-2,5-diphenyltetrazolium bromide] assay was used to determine if compounds of interest were cytotoxic to Caco-2 cells [Mosmann, J. Immunol. […] Cells were cultured and differentiated as detailed above in collagen-coated 96-well plates. Cells were incubated at 37° C., 5% CO2 for at least one hour and up to 72 h in MEM containing the appropriate dilution of compound. Following this incubation period, the media with compound was removed and 110 μL, of MTT reagent (prepared in MEM (final concentration 0.45 mg/mL MTT)) was added. After a 3 h incubation period, the reaction was terminated by the addition of 150 μL, stop buffer (0.01N HCl in 10% SDS). The plates were incubated for 1 h at 37° C. to facilitate solubilization of formazan crystals; color development was read at A570.
The mark [7] stands for this setting: Table 3, structurally related compounds in Caco-2 cells, read-out: IC50.
Setting [8] is: Table 4, derived from laboratory data, read-out: IC50 (μM ± SE).
The mark [9] stands for this setting: Homo sapiens, Table 3, structurally related compounds in Caco-2 cells, read-out: IC50.
Where [10] appears, read: Homo sapiens, Caco-2, Table 4, derived from laboratory data, read-out: IC50 (μM ± SE).
Setting [11] is: C1-BODIPY-C12 uptake, average of 3 experiments ± SEM, read-out: Caco-2 IC50.

For `O=C1Nc2ccc(Br)cc2C12CN=C(c1ccccc1)S2` (stereo not shown) [IV-3], the half-inhibitory concentration (IC50) in data set [1] (setting [7]) and in data set [1] (setting [8]) was 4.84 ± 0.69 µM throughout.
Regarding `COc1cc(/C=C2/SC(=S)N(c3cccc(F)c3)C2=O)cc(Br)c1O` [Compound I-4], in data set [1] (setting [9]), the half-inhibitory concentration (IC50) stood at 4.7 ± 0.8 µM.
As to `COc1cc(/C=C2/SC(=S)N(c3cccc(Cl)c3)C2=O)ccc1O` [Compound I-2], the half-maximal inhibitory concentration (IC50) in data set [1] (setting [10]) came out at 121 ± 25.4 µM; in data set [1] (setting [9]) it was 121 ± 25 µM.
Regarding `COc1cc(/C=C2/SC(=S)N(c3cccc(Cl)c3)C2=O)cc(Br)c1O` [Compound I-1, (5E)-5-[(3-bromo-4-hydroxy-5-methoxyphenyl)methylene]-3-(3-chloropheny1)-2-thioxothiazolidin-4-one], the “glucose (2-NBDG) transport” value in data set [2] (20 μM) is reported as “not affected”. Besides, the IC50 in data set [1] (setting [11]) is 3.99 ± 0.32 µM; in data set [1] (setting [7]) it was 3.99 ± 0.32 µM; in data set [1] (setting [8]), 3.99 ± 0.32 µM; in data set [3] it was 7.55 ± 1.23 µM; in data set [5], 231 ± 33.5 µM. Further, the “% Transport Standard Assay” value in data set [1] is on record as 46 ± 3%. Also, in data set [4] (50 μM (10 times the IC50)), the “inhibition of oleoyl CoA synthetase activity” value is listed as “about 50%”.
Regarding `Oc1c(C2=NCCNC(C(F)(F)F)=C2)ccc2ccccc12` [III-1, 2-[7-(trifluoromethyl)-2,3-dihydro-1H-1,4-diazepin-5-yl]naphthalen-1-ol], the “glucose (2-NBDG) transport” value in data set [2] (20 μM) is “not affected”. Further, the “cellular toxicity (MTT, mitochondrial function)” value (“cellular toxicity” below) in data set [6] (50 μM for 24 h) is “not toxic”. In addition, the IC50 in data set [1] (setting [10]) came to 4.93 ± 0.4 µM; in data set [3] (Homo sapiens, HepG2), 6.72 ± 0.81 µM; in data set [5] (Mus musculus, 3T3-L1), 52.5 ± 6.7 µM. Besides, in data set [1], the “% Transport Standard Assay” value came to 35 ± 1%. In data set [4], the “oleoyl CoA synthetase activity” value is “not reduced”.
Turning to `OCC(CCc1c[nH]c2ccccc12)c1c[nH]c2ccccc12` (stereo not shown) [Compound V-1, 2,4-bis(1H-indol-3-yl)butan-1-ol], in data set [2] (50 μM), the “glucose (2-NBDG) transport” value was “reduced 2-NBDG transport slightly”. In data set [6] (100 μM for 24 h), the “cellular toxicity” value was “not toxic”. Besides, the concentration for half-maximal inhibition (IC50) in data set [1] (Homo sapiens, Caco-2, C1-BODIPY-C12 uptake, average of 3 experiments ± SEM, read-out: Caco-2 IC50) was found to be 29.2 ± 3.64 µM; in data set [3] (Homo sapiens, HepG2), 84.1 ± 14.1 µM; in data set [5] (Mus musculus, 3T3-L1) it was 143 ± 22.4 µM. Moreover, the “% Transport Standard Assay” value in data set [1] stood at 52 ± 2%. The “oleoyl CoA synthetase activity” value in data set [4] is reported as “not reduced”.
With `O=C1C=CC=CC1=C1NNC2(S1)C(=O)Nc1ccc(Br)cc12` (stereo not shown) [IV-1, 5′-bromo-5-(6-oxocyclohexa-2,4-dien-1-ylidene)spiro[1,3,4-thiadiazolidine-2,3′-1H-indole]-2′-one], the “glucose (2-NBDG) transport” value in data set [2] (20 μM) is “not affected”. In addition, the “cellular toxicity” value in data set [6] (50 μM for 24 h) is “not toxic”. Further, the IC50 in data set [1] (setting [10]) was 6.66 ± 0.64 µM. In data set [1], the “% Transport Standard Assay” value was 27 ± 1%. The “oleoyl CoA synthetase activity” value in data set [4] is listed as “not reduced”.
As to `O=C1Nc2ccccc2C12CN=C(c1ccccc1O)S2` (stereo not shown) [IV-2], the IC50 in data set [1] (setting [7]) and in data set [1] (setting [8]) was 11.9 ± 1.43 µM in each case.
With `O=c1cc(-c2ccc([N+](=O)[O-])cc2)[nH]c2c(-c3ccc(Cl)cc3)c(Cc3ccccc3)nn12` [II-1, 2-benzy1-3-(4-chloropheny1)-5-(4-nitropheny1)-1H-pyrazolo[5,1-b]pyrimidin-7-one], the “glucose (2-NBDG) transport” value in data set [2] (20 μM) is on record as “not affected”. For the same compound, the “cellular toxicity” value in data set [6] (50 μM for 24 h) was “not toxic”. Moreover, the IC50 in data set [1] (setting [11]) was 6.34 ± 0.93 µM; in data set [1] (setting [7]) it was 6.34 ± 0.93 µM; in data set [1] (setting [8]) it was 6.34 ± 0.93 µM; in data set [3] it was 10.2 ± 1.26 µM; in data set [5] it was 901 ± 205 µM. In addition, the “% Transport Standard Assay” value in data set [1] came out at 54 ± 1%. Further, the “oleoyl CoA synthetase activity” value in data set [4] was “not reduced”.

These data come from patent publication US8410118B2, “Inhibitors of fatty acid uptake and methods of use” (NUtech Ventures, priority 2009, dated 2013).
